The text below walks through data of article PMC4657912, “Purification and Characterization of a Novel NAD(P)^+-Farnesol Dehydrogenase from Polygonum minus Leaves” (PLoS ONE, 2015).

The test system of experiment [1] is T1, P. minus farnesol dehydrogenase; NAD(P)+-dependent farnesol dehydrogenase.
T1 construct: native, purified from leaves; gene not cloned
The experiment in a line: NADH formation at […] nm, Lineweaver-Burk. As to conditions: 100 mM glycine-NaOH pH 9.5, 35 C, read-out: K m value. In kind it is biochemical, Persicaria minor.

Experiment [2] has the same test system. Briefly: NADPH formation at […] nm, Lineweaver-Burk. The format is biochemical, Persicaria minor. As to conditions: 1.0 mM trans,trans-farnesol (standard assay), 100 mM glycine-NaOH pH 9.5, 35 C; substrate range stated 0.5-1.5 mM, extrapolated; read-out: K m value.
The mark [3] stands for this setting: 1.0 mM NAD+ (standard assay), oxidation.

Structures are written as SMILES.

As for `NC(=O)c1ccc[n+]([C@@H]2O[C@H](COP(=O)(O)OP(=O)(O)OC[C@H]3O[C@@H](n4cnc5c(N)ncnc54)[C@H](O)[C@@H]3O)[C@@H](O)[C@H]2O)c1` [NAD^+], in experiment [1] (1.0 mM trans,trans-farnesol (standard assay)), the Km came out at 740 µM. Turning to `CC(C)=CCC/C(C)=C/CC/C(C)=C/CO` [Trans, trans-farnesol, trans,trans-3,7,11-trimethyl-2,6,10-dodecatrien-1-ol], the Km in experiment [1] (setting [3]) turned out to be 170 µM. `NC(=O)c1ccc[n+]([C@@H]2O[C@H](COP(=O)(O)OP(=O)(O)OC[C@H]3O[C@@H](n4cnc5c(N)ncnc54)[C@H](OP(=O)(O)O)[C@@H]3O)[C@@H](O)[C@H]2O)c1` [NADP^+]: the Km in experiment [2] is 40000 µM. Consider `OC/C=C/c1ccccc1` [Cinnamyl alcohol], for which the Km in experiment [1] (setting [3]) is 1040 µM. Still for that read-out and setting: the result for `C=C(C)[C@@H]1CC=C(CO)CC1` [(S)-Perillyl alcohol] reads 770 µM; that for `CC(C)=CCC/C(C)=C\CC/C(C)=C\CO` [Cis, cis-farnesol], 420 µM; that for `C=C(C)C1CC=C(C)C(O)C1` (stereo not shown) [Carveol], 710 µM. `CC(C)=CCC/C(C)=C/CO` [Geraniol, (trans)-3,7-dimethyl-2,6-octadien-1-ol]: the Km in experiment [1] (1.0 mM NAD+ (standard assay), oxidation, substrate range 0.5-1.5 mM, extrapolated) is 12500 µM. As to `C=CC(C)(O)CCC=C(C)CCC=C(C)C` (stereo not shown) [nerolidol], the Km in experiment [1] (setting [3]) is 1000 µM. Consider `CC(C)=CCC/C(C)=C/CC/C(C)=C\CO` [Cis, trans-farnesol], for which the Km in experiment [1] (setting [3]) amounted to 330 µM.
